Key:
Hepatotoxicity [1] = experiment: Literature-mined compound from Fourches et al multi-species drug-induced liver injury (DILI) dataset, effect in humans; details: human
Hepatotoxicity [2] = experiment: Literature-mined compound from Fourches et al multi-species drug-induced liver injury (DILI) dataset, effect in rodents; details: rodentia
Hepatotoxicity [3] = experiment: Literature-mined compound from Fourches et al multi-species drug-induced liver injury (DILI) dataset, effect in non-rodents

Structure (SMILES) | Hepatotoxicity (Hepatotoxicity [1]) | Hepatotoxicity (Hepatotoxicity [2]) | Hepatotoxicity (Hepatotoxicity [3]) | Hepatotoxicity (Hepatotoxicity [1]; Liver) | Hepatotoxicity (Hepatotoxicity [2]; Liver) | Hepatotoxicity (Hepatotoxicity [3]; Liver)
CN(C)/N=N/c1[nH]cnc1C(N)=O [DACARBAZINE] | drug-induced liver injury reported | no drug-induced liver injury reported | no drug-induced liver injury reported | – | – | –
Nc1cc(-c2ccncc2)c[nH]c1=O [INAMRINONE] | no drug-induced liver injury reported | drug-induced liver injury reported | no drug-induced liver injury reported | – | – | –
CC(C)NCC1CCc2cc(CO)c([N+](=O)[O-])cc2N1 (stereo unspecified) [OXAMNIQUINE] | no drug-induced liver injury reported | drug-induced liver injury reported | no drug-induced liver injury reported | – | – | –
Cc1ncc([N+](=O)[O-])n1CCO [METRONIDAZOLE] | drug-induced liver injury reported | drug-induced liver injury reported | no drug-induced liver injury reported | – | – | –
COc1c(N2CCNC(C)C2)c(F)cc2c(=O)c(C(=O)O)cn(C3CC3)c12 (stereo unspecified) [GATIFLOXACIN] | drug-induced liver injury reported | no drug-induced liver injury reported | no drug-induced liver injury reported | – | – | –
CC1(C)S[C@@H]2[C@H](NC(=O)[C@H](N)c3ccc(O)cc3)C(=O)N2[C@H]1C(=O)O.O=C([O-])[C@H]1/C(=C/CO)O[C@@H]2CC(=O)N21.[K+] [AMOXICILLIN/CLAVULANIC ACID] | drug-induced liver injury reported | no drug-induced liver injury reported | no drug-induced liver injury reported | – | – | –
NCC[C@H](O)C(=O)N[C@@H]1C[C@H](N)[C@@H](O[C@H]2O[C@H](CN)[C@@H](O)[C@H](O)[C@H]2O)[C@H](O)[C@H]1O[C@H]1O[C@H](CO)[C@@H](O)[C@H](N)[C@H]1O [AMIKACIN] | drug-induced liver injury reported | no drug-induced liver injury reported | drug-induced liver injury reported | – | – | –
CCCN(CCC)S(=O)(=O)c1ccc(C(=O)O)cc1 [PROBENECID] | drug-induced liver injury reported | drug-induced liver injury reported | no drug-induced liver injury reported | – | – | –
Cc1oncc1C(=O)Nc1ccc(C(F)(F)F)cc1 [LEFLUNOMIDE] | drug-induced liver injury reported | drug-induced liver injury reported | no drug-induced liver injury reported | – | – | –
CC(C)O [ISOPROPYL ALCOHOL] | no drug-induced liver injury reported | drug-induced liver injury reported | no drug-induced liver injury reported | – | – | –
C[C@H](CCC(=O)O)[C@H]1CC[C@H]2[C@@H]3C(=O)C[C@@H]4CC(=O)CC[C@]4(C)[C@H]3CC(=O)[C@]12C [DEHYDROCHOLIC ACID] | no drug-induced liver injury reported | drug-induced liver injury reported | no drug-induced liver injury reported | – | – | –
CC[C@@H]1C(=O)OC[C@@H]1Cc1cncn1C [PILOCARPINE] | no drug-induced liver injury reported | drug-induced liver injury reported | no drug-induced liver injury reported | – | – | –
CC(C)c1nc(CN(C)C(=O)N[C@H](C(=O)N[C@@H](Cc2ccccc2)C[C@H](O)[C@H](Cc2ccccc2)NC(=O)OCc2cncs2)C(C)C)cs1 [RITONAVIR] | drug-induced liver injury reported | drug-induced liver injury reported | no drug-induced liver injury reported | – | – | –
CNCC[C@H](Oc1cccc2ccccc12)c1cccs1 [DULOXETINE] | – | – | – | drug-induced liver injury reported | no drug-induced liver injury reported | no drug-induced liver injury reported
CC(=O)OCC[N+](C)(C)C [ACETYLCHOLINE] | – | – | – | no drug-induced liver injury reported | drug-induced liver injury reported | drug-induced liver injury reported
CC1=C(CC(=O)O)c2cc(F)ccc2/C1=C\c1ccc(S(C)(=O)=O)cc1 [EXISULIND] | drug-induced liver injury reported | no drug-induced liver injury reported | no drug-induced liver injury reported | – | – | –
CC(NCCc1ccc(O)cc1)C(O)c1ccc(O)cc1.Cl (stereo unspecified) [RITODRINE HYDROCHLORIDE] | no drug-induced liver injury reported | no drug-induced liver injury reported | drug-induced liver injury reported | – | – | –
CCc1nn(CCCN2CCN(c3cccc(Cl)c3)CC2)c(=O)n1CCOc1ccccc1 [NEFAZODONE] | drug-induced liver injury reported | no drug-induced liver injury reported | no drug-induced liver injury reported | – | – | –
NC(=O)c1ncn([C@@H]2O[C@H](CO)[C@@H](O)[C@H]2O)n1 [RIBAVIRIN] | drug-induced liver injury reported | drug-induced liver injury reported | no drug-induced liver injury reported | – | – | –

Structure (SMILES) | Hepatotoxicity (Hepatotoxicity [1]) | Hepatotoxicity (Hepatotoxicity [2]) | Hepatotoxicity (Hepatotoxicity [3]) | Hepatotoxicity (Hepatotoxicity [1]; Liver) | Hepatotoxicity (Hepatotoxicity [2]; Liver) | Hepatotoxicity (Hepatotoxicity [3]; Liver)
C[C@H](N)[C@H](O)c1ccccc1 [(1R,2S)-PHENYLPROPANOLAMINE] | no drug-induced liver injury reported | drug-induced liver injury reported | no drug-induced liver injury reported | – | – | –
COc1cccc2c1C(=O)c1c(O)c3c(c(O)c1C2=O)C[C@@](O)(C(=O)CO)C[C@@H]3O[C@H]1C[C@H](N)[C@H](O)[C@H](C)O1 [DOXORUBICIN] | drug-induced liver injury reported | drug-induced liver injury reported | drug-induced liver injury reported | – | – | –
O=C1c2c(O)cccc2Cc2cccc(O)c21 [ANTHRALIN] | drug-induced liver injury reported | drug-induced liver injury reported | no drug-induced liver injury reported | – | – | –
Nc1ncnc2nc[nH]c12 [ADENINE] | no drug-induced liver injury reported | drug-induced liver injury reported | no drug-induced liver injury reported | – | – | –
CS(=O)(=O)O.Cc1ccc(NC(=O)c2ccc(CN3CCN(C)CC3)cc2)cc1Nc1nccc(-c2cccnc2)n1 [IMATINIB MESYLATE] | drug-induced liver injury reported | drug-induced liver injury reported | no drug-induced liver injury reported | – | – | –
Cc1c(O)cccc1C(=O)N[C@@H](CSc1ccccc1)[C@H](O)CN1C[C@H]2CCCC[C@H]2C[C@H]1C(=O)NC(C)(C)C | drug-induced liver injury reported | no drug-induced liver injury reported | no drug-induced liver injury reported | – | – | –
Cc1cccc(Nc2ccccc2C(=O)O)c1C [MEFENAMIC ACID] | – | – | – | drug-induced liver injury reported | drug-induced liver injury reported | no drug-induced liver injury reported
CC1=C(CC(=O)O)c2cc(F)ccc2/C1=C\c1ccc([S+](C)[O-])cc1 (stereo unspecified) | drug-induced liver injury reported | drug-induced liver injury reported | no drug-induced liver injury reported | – | – | –
Cn1c(=O)c2[nH]cnc2n(C)c1=O.O [THEOPHYLLINE] | drug-induced liver injury reported | drug-induced liver injury reported | drug-induced liver injury reported | – | – | –
Nc1ccc(O)c(C(=O)O)c1 [MESALAMINE] | drug-induced liver injury reported | drug-induced liver injury reported | no drug-induced liver injury reported | – | – | –
O=C(O)Cc1ccccc1 [PHENYLACETIC ACID] | no drug-induced liver injury reported | drug-induced liver injury reported | no drug-induced liver injury reported | – | – | –
N[C@@H](CCC(=O)O)C(=O)O [GLUTAMIC ACID] | no drug-induced liver injury reported | drug-induced liver injury reported | no drug-induced liver injury reported | – | – | –
CO[C@H]1/C=C/O[C@@]2(C)Oc3c(C)c(O)c4c(O)c(c(/C=N/N5CCN(C)CC5)c(O)c4c3C2=O)NC(=O)/C(C)=C\C=C\[C@H](C)[C@H](O)[C@@H](C)[C@@H](O)[C@@H](C)[C@H](OC(C)=O)[C@@H]1C [RIFAMPIN] | drug-induced liver injury reported | drug-induced liver injury reported | drug-induced liver injury reported | – | – | –
Nc1c(Br)cc(Br)cc1CN[C@H]1CC[C@H](O)CC1 [AMBROXOL] | no drug-induced liver injury reported | drug-induced liver injury reported | no drug-induced liver injury reported | – | – | –
Cc1ncc(C[n+]2csc(CCO)c2C)c(N)n1 [THIAMINE ION] | – | – | – | drug-induced liver injury reported | drug-induced liver injury reported | no drug-induced liver injury reported
CC(C(=O)O)c1ccc(C(=O)c2cccs2)cc1 (stereo unspecified) [SUPROFEN] | drug-induced liver injury reported | no drug-induced liver injury reported | no drug-induced liver injury reported | – | – | –
NC(=O)c1ccc[n+]([C@@H]2O[C@H](COP(=O)([O-])OP(=O)(O)OC[C@H]3O[C@@H](n4cnc5c(N)ncnc54)[C@H](O)[C@@H]3O)[C@@H](O)[C@H]2O)c1 [NADIDE] | no drug-induced liver injury reported | drug-induced liver injury reported | no drug-induced liver injury reported | – | – | –
OC[C@H]1O[C@@H](O[C@@H]2[C@@H](CO)O[C@](O)(CO)[C@H]2O)[C@H](O)[C@@H](O)[C@H]1O [LACTULOSE] | drug-induced liver injury reported | drug-induced liver injury reported | no drug-induced liver injury reported | – | – | –
